Laboratory results as given in PubChem BioAssay (NCI).
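Each compound was tested at five concentrations against cells in 96-well plates for 48 hours. The concentration for 50% growth inhibition is given as GI50. At the TGI there is no net growth.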

How the values were obtained:
Assay in all cases: NCI anticancer screen, dose series, 48 h; in the data active means GI50 below about 0.43 µM; inactive means the rest
A549 NSCLC = tested on: A549 NSCLC
HT29 colon = tested on: HT29 colon
RXF 393 renal = tested on: RXF 393 renal
LOX IMVI melanoma = tested on: LOX IMVI melanoma
MDA-MB-231 breast = tested on: MDA-MB-231 breast
M14 melanoma = tested on: M14 melanoma
HOP-62 NSCLC = tested on: HOP-62 NSCLC
OVCAR-3 ovarian = tested on: OVCAR-3 ovarian
SK-MEL-5 melanoma = tested on: SK-MEL-5 melanoma
SF-295 CNS = tested on: SF-295 CNS
CAKI-1 renal = tested on: CAKI-1 renal
A498 renal = tested on: A498 renal
HOP-92 NSCLC = tested on: HOP-92 NSCLC
PC-3 prostate = tested on: PC-3 prostate
RPMI-8226 leukemia = tested on: RPMI-8226 leukemia
SK-OV-3 ovarian = tested on: SK-OV-3 ovarian
UACC-62 melanoma = tested on: UACC-62 melanoma
KM12 colon = tested on: KM12 colon
SF-539 CNS = tested on: SF-539 CNS
OVCAR-5 ovarian = tested on: OVCAR-5 ovarian
786-0 renal = tested on: 786-0 renal
SK-MEL-28 melanoma = tested on: SK-MEL-28 melanoma
NCI-H460 lung = tested on: NCI-H460 lung
T-47D breast = tested on: T-47D breast
MALME-3M melanoma = tested on: MALME-3M melanoma
NCI-H522 lung = tested on: NCI-H522 lung
UO-31 renal = tested on: UO-31 renal
DU-145 prostate = tested on: DU-145 prostate
UACC-257 melanoma = tested on: UACC-257 melanoma
SK-MEL-2 melanoma = tested on: SK-MEL-2 melanoma
HL-60(TB) leukemia = tested on: HL-60(TB) leukemia
SNB-19 CNS = tested on: SNB-19 CNS
ACHN renal = tested on: ACHN renal
OVCAR-8 ovarian = tested on: OVCAR-8 ovarian
SN12C renal = tested on: SN12C renal
TK-10 renal = tested on: TK-10 renal
MDA-MB-435 = tested on: MDA-MB-435
EKVX NSCLC = tested on: EKVX NSCLC
K-562 leukemia = tested on: K-562 leukemia
MOLT-4 leukemia = tested on: MOLT-4 leukemia
NCI/ADR-RES ovarian = tested on: NCI/ADR-RES ovarian
MCF7 breast = tested on: MCF7 breast
HCT-15 colon = tested on: HCT-15 colon
HCC-2998 colon = tested on: HCC-2998 colon
CCRF-CEM leukemia = tested on: CCRF-CEM leukemia
IGROV1 ovarian = tested on: IGROV1 ovarian
HCT-116 colon = tested on: HCT-116 colon
OVCAR-4 ovarian = tested on: OVCAR-4 ovarian
NCI-H226 lung = tested on: NCI-H226 lung
SW-620 colon = tested on: SW-620 colon
SF-268 CNS = tested on: SF-268 CNS
MDA-N = tested on: MDA-N
COLO 205 colon = tested on: COLO 205 colon
U251 CNS = tested on: U251 CNS
NCI-H23 lung = tested on: NCI-H23 lung
SNB-75 CNS = tested on: SNB-75 CNS
HS 578T breast = tested on: HS 578T breast
SR leukemia = tested on: SR leukemia
BT-549 breast = tested on: BT-549 breast

Cc1cn(CC2=NCC(O)CN2)c(=O)[nH]c1=O (centres undefined)
> 100 µM: TGI (A549 NSCLC) | TGI (HT29 colon) | TGI (RXF 393 renal) | TGI (LOX IMVI melanoma) | TGI (MDA-MB-231 breast) | TGI (M14 melanoma) | TGI (HOP-62 NSCLC) | TGI (OVCAR-3 ovarian) | TGI (SK-MEL-5 melanoma) | TGI (SF-295 CNS) | TGI (CAKI-1 renal) | TGI (A498 renal) | TGI (HOP-92 NSCLC) | TGI (PC-3 prostate) | TGI (RPMI-8226 leukemia) | TGI (SK-OV-3 ovarian) | TGI (UACC-62 melanoma) | TGI (KM12 colon) | TGI (SF-539 CNS) | TGI (OVCAR-5 ovarian) | TGI (786-0 renal) | TGI (SK-MEL-28 melanoma) | TGI (NCI-H460 lung) | TGI (T-47D breast) | TGI (MALME-3M melanoma) | TGI (NCI-H522 lung) | TGI (UO-31 renal) | TGI (DU-145 prostate) | TGI (UACC-257 melanoma) | TGI (SK-MEL-2 melanoma) | TGI (HL-60(TB) leukemia) | TGI (SNB-19 CNS) | TGI (ACHN renal) | TGI (OVCAR-8 ovarian) | TGI (SN12C renal) | TGI (TK-10 renal) | TGI (MDA-MB-435) | TGI (EKVX NSCLC) | TGI (K-562 leukemia) | TGI (MOLT-4 leukemia) | TGI (NCI/ADR-RES ovarian) | TGI (MCF7 breast) | TGI (HCT-15 colon) | TGI (HCC-2998 colon) | TGI (CCRF-CEM leukemia) | TGI (IGROV1 ovarian) | TGI (HCT-116 colon) | TGI (OVCAR-4 ovarian) | TGI (NCI-H226 lung) | TGI (SW-620 colon) | TGI (SF-268 CNS) | TGI (MDA-N) | TGI (COLO 205 colon) | TGI (U251 CNS) | TGI (NCI-H23 lung)

COc1cc(Nc2cc(O)c3c(=O)cc(-c4ccccc4)oc3c2)cc(OC)c1
32.4 µM: TGI (IGROV1 ovarian)
18.4 µM: TGI (MDA-MB-231 breast)
18.3 µM: TGI (U251 CNS)
4.39 µM: TGI (NCI-H522 lung)
21.9 µM: TGI (786-0 renal)
30.7 µM: TGI (UO-31 renal)
16.8 µM: TGI (CAKI-1 renal)
1.93 µM: TGI (SF-539 CNS)
17.7 µM: TGI (HOP-92 NSCLC)
> 37.4 µM: TGI (UACC-62 melanoma)
> 52.1 µM: TGI (PC-3 prostate)
> 39.2 µM: TGI (KM12 colon)
30.9 µM: TGI (SF-268 CNS)
40.4 µM: TGI (SK-MEL-2 melanoma)
9.97 µM: TGI (SK-MEL-5 melanoma)
1.64 µM: TGI (OVCAR-3 ovarian)
18.6 µM: TGI (SK-OV-3 ovarian)
9.03 µM: TGI (A498 renal)
> 100 µM: TGI (LOX IMVI melanoma) | TGI (M14 melanoma) | TGI (RPMI-8226 leukemia) | TGI (SK-MEL-28 melanoma) | TGI (T-47D breast) | TGI (MALME-3M melanoma) | TGI (UACC-257 melanoma) | TGI (ACHN renal) | TGI (SR leukemia) | TGI (EKVX NSCLC) | TGI (K-562 leukemia) | TGI (MOLT-4 leukemia) | TGI (MCF7 breast) | TGI (HCT-15 colon) | TGI (CCRF-CEM leukemia) | TGI (HCT-116 colon) | TGI (SW-620 colon) | TGI (COLO 205 colon)
23.9 µM: TGI (OVCAR-8 ovarian)
75.5 µM: TGI (SN12C renal)
46.6 µM: TGI (TK-10 renal)
8.33 µM: TGI (SF-295 CNS)
> 35.3 µM: TGI (NCI-H460 lung)
0.75 µM: TGI (SNB-75 CNS)
20.9 µM: TGI (HOP-62 NSCLC) | TGI (DU-145 prostate)
> 52.3 µM: TGI (BT-549 breast)
active: GI50 (RXF 393 renal) 0.329 µM | GI50 (SNB-75 CNS) 0.193 µM | GI50 (OVCAR-3 ovarian) 0.274 µM | GI50 (SK-MEL-5 melanoma) 0.169 µM | GI50 (SF-295 CNS) 0.389 µM | GI50 (CAKI-1 renal) 0.335 µM | GI50 (A498 renal) 0.351 µM | GI50 (UACC-62 melanoma) 0.387 µM | GI50 (KM12 colon) 0.282 µM | GI50 (SF-539 CNS) 0.338 µM | GI50 (HS 578T breast) 0.338 µM | GI50 (NCI-H460 lung) 0.39 µM | GI50 (T-47D breast) 0.251 µM | GI50 (NCI-H522 lung) 0.203 µM | GI50 (HL-60(TB) leukemia) 0.355 µM | GI50 (SR leukemia) 0.253 µM | GI50 (MDA-MB-435) 0.147 µM | GI50 (K-562 leukemia) 0.311 µM | GI50 (MCF7 breast) 0.0357 µM | GI50 (HCT-15 colon) 0.104 µM | GI50 (CCRF-CEM leukemia) 0.411 µM | GI50 (IGROV1 ovarian) 0.409 µM | GI50 (HCT-116 colon) 0.407 µM | GI50 (SW-620 colon) 0.377 µM
48 µM: TGI (NCI-H226 lung)
97.3 µM: TGI (A549 NSCLC)
0.498 µM: TGI (MDA-MB-435)
> 36.9 µM: TGI (HT29 colon)
22.8 µM: TGI (SNB-19 CNS)
25 µM: TGI (NCI/ADR-RES ovarian)
1.83 µM: TGI (RXF 393 renal)
> 47.5 µM: TGI (OVCAR-5 ovarian)
inactive: GI50 (A549 NSCLC) 0.788 µM | GI50 (HT29 colon) 3.33 µM | GI50 (LOX IMVI melanoma) 0.581 µM | GI50 (MDA-MB-231 breast) 0.964 µM | GI50 (M14 melanoma) 0.466 µM | GI50 (HOP-62 NSCLC) 0.795 µM | GI50 (HOP-92 NSCLC) 0.944 µM | GI50 (PC-3 prostate) 0.815 µM | GI50 (RPMI-8226 leukemia) 0.471 µM | GI50 (SK-OV-3 ovarian) 0.548 µM | GI50 (OVCAR-5 ovarian) 1.29 µM | GI50 (786-0 renal) 1.34 µM | GI50 (SK-MEL-28 melanoma) 2.84 µM | GI50 (MALME-3M melanoma) 0.754 µM | GI50 (UO-31 renal) 0.763 µM | GI50 (DU-145 prostate) 0.476 µM | GI50 (UACC-257 melanoma) 39.1 µM | GI50 (SK-MEL-2 melanoma) 0.537 µM | GI50 (SNB-19 CNS) 0.533 µM | GI50 (ACHN renal) 0.628 µM | GI50 (OVCAR-8 ovarian) 0.9 µM | GI50 (SN12C renal) 0.736 µM | GI50 (TK-10 renal) 4.94 µM | GI50 (EKVX NSCLC) 0.769 µM | GI50 (MOLT-4 leukemia) 0.595 µM | GI50 (BT-549 breast) 0.651 µM | GI50 (NCI/ADR-RES ovarian) 0.437 µM | GI50 (HCC-2998 colon) 2.31 µM | GI50 (OVCAR-4 ovarian) 8.61 µM | GI50 (NCI-H226 lung) 2.57 µM | GI50 (SF-268 CNS) 0.909 µM | GI50 (COLO 205 colon) 4.68 µM | GI50 (U251 CNS) 0.484 µM | GI50 (NCI-H23 lung) 0.922 µM
41.9 µM: TGI (OVCAR-4 ovarian)
> 54 µM: TGI (HCC-2998 colon)
40 µM: TGI (NCI-H23 lung)
